Read-outs that look alike come from different tables or passages of the source.
Tests used:
MeV = conditions: cited from earlier work
MeV L1708 = MeV L1708 (Measles virus, UniProt Q9WMB3); assay: Biolayer interferometry, MeV L1708 WT; format: binding; conditions: for BLI sensorgram signal: time r4=0 s, r5=0.2 s, r6=0.4 s, r7=0.6 s; for S5 E BLI response versus compound conc. / S5 F BLI response versus compound conc.: L1708 wt; for S5 B BLI sensorgram response / S5 C BLI sensorgram response: MeV L1708 WT; for steady-state BLI sensor response: S7 B
Sequence of MeV L1708 (Q9WMB3 1-1708): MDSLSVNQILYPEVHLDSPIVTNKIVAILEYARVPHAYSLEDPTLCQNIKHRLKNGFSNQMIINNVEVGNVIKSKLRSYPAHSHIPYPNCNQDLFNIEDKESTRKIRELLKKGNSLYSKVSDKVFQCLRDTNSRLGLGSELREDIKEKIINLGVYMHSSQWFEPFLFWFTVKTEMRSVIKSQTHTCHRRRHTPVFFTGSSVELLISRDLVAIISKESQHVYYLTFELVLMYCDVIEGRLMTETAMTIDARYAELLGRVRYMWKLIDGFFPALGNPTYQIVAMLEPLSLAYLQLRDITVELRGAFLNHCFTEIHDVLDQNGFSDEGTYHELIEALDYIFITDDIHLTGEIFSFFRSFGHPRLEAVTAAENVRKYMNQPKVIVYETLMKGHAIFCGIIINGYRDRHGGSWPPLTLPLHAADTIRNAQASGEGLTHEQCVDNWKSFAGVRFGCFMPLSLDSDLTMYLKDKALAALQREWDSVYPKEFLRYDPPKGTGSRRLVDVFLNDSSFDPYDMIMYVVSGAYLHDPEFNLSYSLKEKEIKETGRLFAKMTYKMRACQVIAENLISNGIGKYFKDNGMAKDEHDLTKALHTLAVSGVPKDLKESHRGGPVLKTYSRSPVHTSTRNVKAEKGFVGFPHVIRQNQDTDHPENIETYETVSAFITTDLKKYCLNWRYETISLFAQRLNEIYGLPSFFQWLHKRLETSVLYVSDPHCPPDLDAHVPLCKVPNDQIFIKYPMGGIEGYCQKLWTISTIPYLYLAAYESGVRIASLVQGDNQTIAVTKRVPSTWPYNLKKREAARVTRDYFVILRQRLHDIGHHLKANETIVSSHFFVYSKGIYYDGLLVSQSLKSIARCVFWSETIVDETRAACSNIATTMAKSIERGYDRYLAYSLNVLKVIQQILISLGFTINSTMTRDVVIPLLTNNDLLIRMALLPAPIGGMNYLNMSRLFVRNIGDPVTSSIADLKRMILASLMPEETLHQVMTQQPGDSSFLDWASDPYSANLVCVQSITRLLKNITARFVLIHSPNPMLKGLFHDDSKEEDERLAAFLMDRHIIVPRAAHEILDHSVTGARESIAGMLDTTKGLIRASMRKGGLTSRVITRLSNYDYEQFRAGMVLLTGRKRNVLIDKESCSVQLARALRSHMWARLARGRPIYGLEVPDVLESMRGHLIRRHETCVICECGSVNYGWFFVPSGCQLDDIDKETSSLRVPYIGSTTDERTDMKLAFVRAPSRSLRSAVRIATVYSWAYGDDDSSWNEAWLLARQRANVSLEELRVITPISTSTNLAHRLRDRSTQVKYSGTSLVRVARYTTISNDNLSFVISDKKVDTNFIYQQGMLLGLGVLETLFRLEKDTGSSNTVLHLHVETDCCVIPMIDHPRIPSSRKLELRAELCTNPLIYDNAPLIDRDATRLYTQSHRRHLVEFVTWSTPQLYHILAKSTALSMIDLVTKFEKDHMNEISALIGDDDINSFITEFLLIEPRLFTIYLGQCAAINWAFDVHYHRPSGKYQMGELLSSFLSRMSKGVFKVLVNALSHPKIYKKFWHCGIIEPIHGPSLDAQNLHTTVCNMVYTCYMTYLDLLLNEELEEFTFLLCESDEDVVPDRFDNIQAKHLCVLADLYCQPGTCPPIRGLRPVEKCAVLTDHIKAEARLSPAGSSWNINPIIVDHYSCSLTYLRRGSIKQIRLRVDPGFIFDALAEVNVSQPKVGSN
Sequence of MeV L1708 (Q9WMB4 whole entry partner): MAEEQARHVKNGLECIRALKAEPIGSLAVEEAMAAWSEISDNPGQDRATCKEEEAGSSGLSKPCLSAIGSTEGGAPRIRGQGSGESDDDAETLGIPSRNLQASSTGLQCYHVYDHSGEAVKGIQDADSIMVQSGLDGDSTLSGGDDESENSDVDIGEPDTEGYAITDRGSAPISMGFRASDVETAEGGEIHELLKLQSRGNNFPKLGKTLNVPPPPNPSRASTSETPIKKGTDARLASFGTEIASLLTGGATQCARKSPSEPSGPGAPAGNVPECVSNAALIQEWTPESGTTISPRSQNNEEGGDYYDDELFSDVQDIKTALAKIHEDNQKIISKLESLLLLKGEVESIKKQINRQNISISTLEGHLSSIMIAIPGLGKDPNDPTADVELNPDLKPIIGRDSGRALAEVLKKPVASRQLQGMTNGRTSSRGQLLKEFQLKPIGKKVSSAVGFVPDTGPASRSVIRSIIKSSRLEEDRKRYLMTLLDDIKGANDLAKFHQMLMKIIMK

Cn1nc(C(F)(F)F)cc1C(=O)Nc1ccc(S(=O)(=O)N2CCCC[C@H]2CCN2CCOCC2)cc1 [ERDRP-0519, S(=O)(=O)(N1[C@H](CCN2CCOCC2)CCCC1)c1ccc(NC(=O)c2n(C)nc(C(F)(F)F)c2)cc1]
IC50 (MeV; Figure 7A source data): 59 nM | EC50 (MeV; experimental activity, read-out: EC50): 59 nM | EC50 (MeV; read-out: EC50 in cell-based anti-MeV assays): 70 to 230 nM | BLI sensorgram signal (MeV L1708; 0.027 µM, 0 s after start): 0.003933 | BLI sensorgram signal (MeV L1708; 0.027 µM, 0.2 s after start): 0.003451 | BLI sensorgram signal (MeV L1708; 0.027 µM, 0.4 s after start): 0.003441 | BLI sensorgram signal (MeV L1708; 0.027 µM, 0.6 s after start): 0.002991 | BLI sensorgram signal (MeV L1708; 0.08 µM, 0 s after start): 0.004633 | BLI sensorgram signal (MeV L1708; 0.08 µM, 0.2 s after start): 0.004988 | BLI sensorgram signal (MeV L1708; 0.08 µM, 0.4 s after start): 0.005321 | BLI sensorgram signal (MeV L1708; 0.08 µM, 0.6 s after start): 0.005054 | BLI sensorgram signal (MeV L1708; 0.74 µM, 0 s after start): 0.0125 | BLI sensorgram signal (MeV L1708; 0.74 µM, 0.2 s after start): 0.01183 | BLI sensorgram signal (MeV L1708; 0.74 µM, 0.4 s after start): 0.01188 | BLI sensorgram signal (MeV L1708; 0.74 µM, 0.6 s after start): 0.0114 | BLI sensorgram signal (MeV L1708; 2.22 µM, 0 s after start): 0.01275 | BLI sensorgram signal (MeV L1708; 2.22 µM, 0.2 s after start): 0.01261 | BLI sensorgram signal (MeV L1708; 2.22 µM, 0.4 s after start): 0.01211 | BLI sensorgram signal (MeV L1708; 2.22 µM, 0.6 s after start): 0.01142 | BLI sensorgram signal (MeV L1708; 6.67 µM, 0 s after start): 0.009323 | BLI sensorgram signal (MeV L1708; 6.67 µM, 0.2 s after start): 0.01006 | BLI sensorgram signal (MeV L1708; 6.67 µM, 0.4 s after start): 0.01027 | BLI sensorgram signal (MeV L1708; 6.67 µM, 0.6 s after start): 0.01076 | S5 E BLI response versus compound conc. (MeV L1708; compound conc. 0.1 uM): 0.01921 | S5 F BLI response versus compound conc. (MeV L1708; compound conc. 0.1 uM): 0.02408 | S5 E BLI response versus compound conc. (MeV L1708; compound conc. 0.25 uM): 0.02429 | S5 F BLI response versus compound conc. (MeV L1708; compound conc. 0.25 uM): 0.0326 | S5 E BLI response versus compound conc. (MeV L1708; compound conc. 1 uM): 0.03022 | S5 F BLI response versus compound conc. (MeV L1708; compound conc. 1 uM): 0.03823 | S5 E BLI response versus compound conc. (MeV L1708; compound conc. 5 uM): 0.0316 | S5 F BLI response versus compound conc. (MeV L1708; compound conc. 5 uM): 0.04742 | S5 B BLI sensorgram response (MeV L1708; 100 nM, time 0 s): -0.001906 | S5 C BLI sensorgram response (MeV L1708; 100 nM, time 0 s): 0.005581 | S5 B BLI sensorgram response (MeV L1708; 100 nM, time 0.2 s): -0.001896 | S5 C BLI sensorgram response (MeV L1708; 100 nM, time 0.2 s): 0.006504 | S5 B BLI sensorgram response (MeV L1708; 100 nM, time 0.4 s): -0.001894 | S5 C BLI sensorgram response (MeV L1708; 100 nM, time 0.4 s): 0.007379 | S5 B BLI sensorgram response (MeV L1708; 100 nM, time 0.6 s): -0.001966 | S5 C BLI sensorgram response (MeV L1708; 100 nM, time 0.6 s): 0.008161 | S5 B BLI sensorgram response (MeV L1708; 250 nM, time 0 s): -0.005003 | S5 C BLI sensorgram response (MeV L1708; 250 nM, time 0 s): -0.0006808 | S5 B BLI sensorgram response (MeV L1708; 250 nM, time 0.2 s): -0.005217 | S5 C BLI sensorgram response (MeV L1708; 250 nM, time 0.2 s): -0.0001528 | S5 B BLI sensorgram response (MeV L1708; 250 nM, time 0.4 s): -0.005452 | S5 C BLI sensorgram response (MeV L1708; 250 nM, time 0.4 s): 0.0001322 | S5 B BLI sensorgram response (MeV L1708; 250 nM, time 0.6 s): -0.004917 | S5 C BLI sensorgram response (MeV L1708; 250 nM, time 0.6 s): 0.0008364 | S5 B BLI sensorgram response (MeV L1708; 1 µM, time 0 s): -0.01251 | S5 C BLI sensorgram response (MeV L1708; 1 µM, time 0 s): -0.001989 | S5 B BLI sensorgram response (MeV L1708; 1 µM, time 0.2 s): -0.01197 | S5 C BLI sensorgram response (MeV L1708; 1 µM, time 0.2 s): -0.00137 | S5 B BLI sensorgram response (MeV L1708; 1 µM, time 0.4 s): -0.01055 | S5 C BLI sensorgram response (MeV L1708; 1 µM, time 0.4 s): -0.0005476 | S5 B BLI sensorgram response (MeV L1708; 1 µM, time 0.6 s): -0.009819 | S5 B BLI sensorgram response (MeV L1708; 5 µM, time 0 s): -0.006751 | S5 B BLI sensorgram response (MeV L1708; 5 µM, time 0.2 s): -0.006914 | S5 C BLI sensorgram response (MeV L1708; 5 µM, time 0.2 s): 0.003468 | S5 B BLI sensorgram response (MeV L1708; 5 µM, time 0.4 s): -0.007277 | S5 C BLI sensorgram response (MeV L1708; 5 µM, time 0.4 s): 0.003613 | S5 B BLI sensorgram response (MeV L1708; 5 µM, time 0.6 s): -0.007135 | S5 C BLI sensorgram response (MeV L1708; 5 µM, time 0.6 s): 0.003495 | S5 B BLI sensorgram response (MeV L1708; 10 µM, time 0 s): -0.00589 | S5 C BLI sensorgram response (MeV L1708; 10 µM, time 0 s): -0.0007761 | S5 B BLI sensorgram response (MeV L1708; 10 µM, time 0.2 s): -0.006049 | S5 C BLI sensorgram response (MeV L1708; 10 µM, time 0.2 s): -0.00071 | S5 B BLI sensorgram response (MeV L1708; 10 µM, time 0.4 s): -0.006539 | S5 C BLI sensorgram response (MeV L1708; 10 µM, time 0.4 s): -0.000595 | S5 B BLI sensorgram response (MeV L1708; 10 µM, time 0.6 s): -0.006943 | S5 C BLI sensorgram response (MeV L1708; 10 µM, time 0.6 s): -0.0003228 | S5 B BLI sensorgram response (MeV L1708; 50 µM, time 0 s): -0.01268 | S5 C BLI sensorgram response (MeV L1708; 50 µM, time 0 s): 0.001755 | S5 B BLI sensorgram response (MeV L1708; 50 µM, time 0.2 s): -0.01168 | S5 C BLI sensorgram response (MeV L1708; 50 µM, time 0.2 s): 0.001652 | S5 B BLI sensorgram response (MeV L1708; 50 µM, time 0.4 s): -0.01101 | S5 C BLI sensorgram response (MeV L1708; 50 µM, time 0.4 s): 0.001542 | S5 B BLI sensorgram response (MeV L1708; 50 µM, time 0.6 s): -0.01006 | S5 C BLI sensorgram response (MeV L1708; 50 µM, time 0.6 s): 0.001922 | steady-state BLI sensor response (MeV L1708; 0.003 uM): 0.007597 | steady-state BLI sensor response (MeV L1708; 0.027 uM): 0.01138 | steady-state BLI sensor response (MeV L1708; 0.08 uM): 0.01081 | steady-state BLI sensor response (MeV L1708; 0.74 uM): 0.01443 | steady-state BLI sensor response (MeV L1708; 2.22 uM): 0.01474 | steady-state BLI sensor response (MeV L1708; 6.67 uM): 0.01921

Reference: publication PMC7935272 (PLoS Pathogens, 2021)
